Active and inactive are the calls of the source. No cut-off for these calls is given here.
Assays:
[1] = Cytotoxicity against human HEp-2 cells assessed as reduction in cell viability measured after 60 hrs by MTT assay; assay type: cell-based
[2] = Selectivity index, ratio of CC50 for human HEp-2 cells to EC50 for Respiratory syncytial virus infected in human HEp-2 cells; assay type: toxicity, cell-based; settings: read-out: Selectivity Index
[3] = system: Respiratory syncytial virus; experiment: Antiviral activity against Respiratory syncytial virus infected in human HEp-2 cells assessed as reduction in viral infection incubated for 60 hrs by MTT assay; assay type: functional, organism-based; settings: dose 3.125-50 µM
[4] = system: Respiratory syncytial virus; experiment: Antiviral activity against Respiratory syncytial virus infected in human HEp-2 cells assessed as inhibition of virus infected cells induced lesion formation at 25 uM measured after 60 hrs by microscopic analysis; assay type: functional, organism-based
[5] = system: Respiratory syncytial virus; experiment: Antiviral activity against Respiratory syncytial virus Long infected in human HEp-2 cells assessed as reduction in viral infection incubated for 60 hrs by MTT assay; assay type: functional, organism-based; settings: HEp-2, 60 h
[6] = system: Respiratory syncytial virus; experiment: Antiviral activity against Respiratory syncytial virus Long infected in human A549 cells assessed as reduction in viral infection incubated for 60 hrs by MTT assay; assay type: functional, organism-based; settings: A549, 60 h
Human orthopneumovirus = experiment: Antiviral activity against Respiratory syncytial virus A2 infected in human HEp-2 cells assessed as reduction in viral infection incubated for 60 hrs by MTT assay; assay type: functional, organism-based; settings: A2, HEp-2, 60 h
[7] = system: Respiratory syncytial virus; experiment: Antiviral activity against Respiratory syncytial virus Long infected in human HEp-2 cells assessed as reduction in viral infection up to 50 uM treated 2 hpi measured after 60 hrs by MTT assay; assay type: functional, organism-based; settings: dose microM <=50, time 60.0 hrs
[8] = system: Respiratory syncytial virus; experiment: Antiviral activity against Respiratory syncytial virus infected in human HEp-2 cells assessed as inhibition of viral replication at 25 uM treated up to 14 hpi and measured after 60 hrs by MTT assay; assay type: functional, organism-based
[9] = system: Respiratory syncytial virus; experiment: Inhibition of RSV induced apoptosis in human HEp-2 cells assessed as late apoptotic cells at 25 uM measured after 60 hrs by Annexin V-FITC/PI staining based flow cytometry analysis (reference value: 20.2%); assay type: functional; design: scale not given: the % may be the effect or the level left
HEp-2 [10] = experiment: Induction of apoptosis in human HEp-2 cells assessed as late apoptotic cells at 25 uM measured after 60 hrs by Annexin V-FITC/PI staining based flow cytometry analysis (reference value: 1.6%); assay type: functional
[11] = system: Respiratory syncytial virus; experiment: Inhibition of RSV induced apoptosis in human HEp-2 cells assessed as reduction in PARP cleavage measured after 48 hrs by Western blot analysis; assay type: functional, organism-based
[12] = Inhibition of RSV induced ROS production in human HEp-2 cells assessed as reduction in accumulation of ROS-positive cells at 50 uM measured after 36 hrs by DCHF-DA staining based flow cytometry analysis (reference value: 82.2%); assay type: functional, Respiratory syncytial virus; design: scale not given: the % may be the effect or the level left
[13] = Inhibition of RSV induced ROS production in human HEp-2 cells assessed as reduction in accumulation of ROS-positive cells at 25 uM measured after 36 hrs by DCHF-DA staining based flow cytometry analysis (reference value: 82.2%); assay type: functional, Respiratory syncytial virus; design: scale not given: the % may be the effect or the level left
HEp-2 [14] = experiment: Inhibition of RSV induced autophagy flux in RSV-infected infected human HEP-2 cells by measuring p62 expression at 25 to 50 uM measured after 24 hrs by Western blot analysis; assay type: functional, cell-based; settings: Respiratory syncytial virus, dose 25-50 µM
[15] = system: Respiratory syncytial virus; experiment: Antiviral activity against RSV infected in human HEp-2 cells assessed as decrease in virus induced RIG-1 gene expression measured after 48 hrs by RT-PCR analysis; assay type: functional, organism-based
[16] = system: Respiratory syncytial virus; experiment: Antiviral activity against RSV infected in human HEp-2 cells assessed as decrease in virus induced IRF3 gene expression measured after 48 hrs by RT-PCR analysis; assay type: functional, organism-based
[17] = system: Respiratory syncytial virus; experiment: Antiviral activity against RSV Long infected in BALB/c mouse assessed as reversal of virus infection induced weight loss at 25 to 100 mg/kg/day administered via gastric gavage once daily for 6 days; assay type: functional, organism-based; settings: dose 25-100 mg/kg/day, time 6.0 day
[18] = system: Respiratory syncytial virus; experiment: Antiviral activity against RSV Long infected in BALB/c mouse assessed as reduction in lung tissue damage by measuring lung index at 25 to 100 mg/kg/day measured after 2 days of virus infection; assay type: functional, organism-based; settings: dose 25-100 mg/kg/day, time 2.0 day
[19] = system: Respiratory syncytial virus; experiment: Antiviral activity against RSV Long infected in BALB/c mouse assessed as reduction in lung tissue damage by measuring lung index at 25 to 100 mg/kg/day measured after 4 to 6 days of virus infection; assay type: functional, organism-based; settings: dose 25-100 mg/kg/day, time 4-6 day
[20] = system: Respiratory syncytial virus; experiment: Antiviral activity against RSV infected in BALB/c mouse assessed as downregulation of IL-6 expression in lung tissue infected with RSV at 25 to 100 mg/kg/day measured after 2 days post infection by RT-PCR analysis; assay type: functional, organism-based; settings: dose 25-100 mg/kg/day, time 2.0 day
[21] = system: Respiratory syncytial virus; experiment: Antiviral activity against RSV infected in BALB/c mouse assessed as downregulation of IL-8 expression in lung tissue infected with RSV at 25 to 100 mg/kg/day measured after 2 to 6 days post infection by RT-PCR analysis; assay type: functional, organism-based; settings: dose 25-100 mg/kg/day, time 2-6 day
[22] = system: Respiratory syncytial virus; experiment: Antiviral activity against RSV infected in BALB/c mouse assessed as downregulation of iNOS expression in lung tissue infected with RSV at 25 to 100 mg/kg/day measured after 2 to 6 days post infection by RT-PCR analysis; assay type: functional, organism-based; settings: dose 25-100 mg/kg/day, time 2-6 day
[23] = system: Respiratory syncytial virus; experiment: Antiviral activity against RSV infected in BALB/c mouse assessed as downregulation of TNF-alpha expression in lung tissue infected with RSV at 25 to 100 mg/kg/day measured after 2 to 6 days post infection by RT-PCR analysis; assay type: functional, organism-based; settings: dose 25-100 mg/kg/day, time 2-6 day

Question: For `Cc1c(Br)cc2nc3n(c2c1Br)[C@H]1OC[C@@H](O)[C@H]1OC3`, which CC50 at 60 h [1] is on record?
Answer: The CC50 at 60 h was 250 µM.

Question: What about the selectivity ratio [2] of the same molecule?
Answer: Its selectivity ratio is 26.4.

Question: And the Activity [3]?
Answer: The Activity was “Dose-Dependent Effect”.

Question: And the Activity [4]?
Answer: The Activity was “Active”.

Question: What about the EC50 [5] of the same molecule?
Answer: Its EC50 is 9.49 µM.

Question: And the EC50 [6]?
Answer: Its EC50 is 13.3 µM.

Question: What about the EC50 (Human orthopneumovirus) of the same molecule?
Answer: The EC50 was 12.8 µM.

Question: And the Activity [7]?
Answer: The Activity was “Active”.

Question: And the Activity [8]?
Answer: Its Activity is “Active”.

Question: What about the Activity [9] of the same molecule?
Answer: Its Activity is 1.8%.

Question: What about the Activity (HEp-2 [10]) of the same molecule?
Answer: The Activity was 2.4%.

Question: What about the inhibition [11] of the same molecule?
Answer: Its inhibition is “Active”.

Question: And the Activity [12]?
Answer: The Activity was 56.3%.

Question: And the Activity [13]?
Answer: Its Activity is 60.7%.

Question: What about the Activity (HEp-2 [14]) of the same molecule?
Answer: The Activity was “Active”.

Question: And the Activity [15]?
Answer: Its Activity is “Dose-Dependent Effect”.

Question: What about the Activity [16] of the same molecule?
Answer: Its Activity is “Dose-Dependent Effect”.

Question: What about the Activity [17] of the same molecule?
Answer: Its Activity is “Active”.

Question: What about the Activity [18] of the same molecule?
Answer: The Activity was “Active”.

Question: And the Activity [19]?
Answer: Its Activity is “Active”.

Question: And the Activity [20]?
Answer: The Activity was “Active”.

Question: And the Activity [21]?
Answer: Its Activity is “Active”.

Question: And the Activity [22]?
Answer: Its Activity is “Active”.

Question: What about the Activity [23] of the same molecule?
Answer: The Activity was “Active”.

Source: ChEMBL document CHEMBL4831503, “Design, synthesis, in vitro and in vivo anti-respiratory syncytial virus (RSV) activity of novel oxizine fused benzimidazole derivatives” (Eur J Med Chem, 2021)
